{
  "source": "patent US6767738B1",
  "about": "“Method of isolating adult mammalian CNS-derived progenitor stem cells using density gradient centrifugation” (The Salk Institute for Biological Studies, priority 1999, dated 2004)",
  "key": {"[1]": {"test_system": "low buoyancy fraction cells from hippocampus or cortex", "experiment": "Proliferation of low buoyancy hippocampus or cortex cells in growth medium", "type": "cell-based, rat", "conditions": "20 ng/ml FGF-2, after 10 days", "description": "Tissue dissociation and fractionation: Tissues were finely minced and digested in a solution of papain (2.5 U/ml, Worthington), DNAse (250 U/ml, Worthington), and neutral protease (1 U/ml Dispase, Boehringer) dissolved in Hanks balanced salt solution, as described in Palmer T D, Ray J, Gage F H (1995), FGF-2-Responsive Neuronal Progenitors Reside in Proliferative and Quiescent Regions of the Adult Rodent Brain. Mol Cell Neurosci 6:474-486; and Gage F H, Coates P W, Palmer T D, Kuhn H G, Fisher L J, Suhonen J O, Peterson D A, Suhr S T, Ray J (1995), Survival and differentiation of adult neuronal progenitor cells transplanted to the adult brain. Proc Natl Acad Sci USA 92:11879-11883. Cells and tissue fragments were washed 3 times with Dulbecco's Modified Eagles Medium (DMEM) containing 10% […] bovine serum (defined FBS, Hyclone). Whole digested tissue was then suspended in DMEM 10% FBS, filtered through a sterile 107 μm nylon mesh and thoroughly mixed with an equal volume of PERCOLL™ (polyvinylpyrrolidone-coated silica colloids) solution. […]\nAlthough BrdU-labeled cells fractionated to the low buoyancy population, most of the isolated cells were unlabeled, consistent with the isolation of immature, yet relatively quiescent precursors. […] Cell division was monitored by counting cells and by treating replicate cultures with BrdU at different times post plating. […]"}, "PERCOLL isolated cells": {"test_system": "PERCOLL isolated cells", "experiment": "Proliferation of PERCOLL isolated whole brain cells", "type": "cell-based, rat", "conditions": "20 ng/ml bFGF in vitro", "procedure": "Dissection. Adult female Fischer 344 rats (4-6 months of age) were anesthetized with a mixture of ketamine (44 mg/kg), acepromazine (0.75 mg/kg), and xylazine (4 mg/kg) in 0.9% NaCl and decapitated. The brains were removed and placed into cold phosphate-buffered saline (PBS).\nTissue Preparation. A cell suspension was obtained by pooling the brains from 6 animals from which the cerebella had been trimmed away. The remaining brain tissue was then weighed. The brains were diced into small fragments, and then digested for 40-50 min at 37° C. in Hanks' balanced salt solution containing 0.1% grade II neutral protease (Boehringer Mannheim), 0.01% papain (Worthington), and 0.01% Dnase I (Worthington). The mixture was shaken every five minutes. Every fifteen minutes during the digestion, the tissues were gently disrupted by pipetting the digestion reaction mixture through a 5-ml pipette. The tissue was then rinsed two times with DMEM/F12 containing 10% […] bovine serum, to inactivate digestive enzymes, and filtered through nylon mesh (Nitex, 100 μm pore size), to remove undissociated tissue. The filtered cells were resuspended to a final volume of 10 ml in DMEM/F12/10% FBS.\nPERCOLL™ (polyvinylpyrrolidone-coated silica colloids) density gradient preparation and centrifugation. […]"}},
  "data": [
    {"substance": "FGF-2: basic fibroblast growth factor, human recombinant, prepared in E. coli", "values": [
      {"measurement": "cells dividing in a given 24-hour period", "setting": "[1]", "value": "roughly 85%"},
      {"measurement": "cells labeled following a 48 hour exposure to BrdU", "setting": "[1]", "value": "> 99", "unit": "%"},
      {"measurement": "proliferation response", "setting": "PERCOLL isolated cells", "value": "inducible to proliferate"}
    ]}
  ]
}
